What was measured:
Type in all cases: biochemical
JAK2 = biological target: T1, JAK2 (Homo sapiens, UniProt O60674); experiment: JAK2 inhibition (Table 4); settings: read-out: JAK2 Ki
T1 construct: made in house; host or cells: SF9 insect cells (baculovirus)

JAK3 = biological target: T2, JAK3 (Homo sapiens, UniProt P52333); experiment: JAK3 inhibition (Table 4); settings: read-out: JAK3 Ki
T2 construct: made in house; host or cells: SF9 insect cells (baculovirus)

JAK1 = biological target: T3, JAK1 (Homo sapiens, UniProt P23458); experiment: JAK1 inhibition (Table 4); settings: read-out: JAK1 Ki
T3 construct: made in house; host or cells: SF9 insect cells (baculovirus)

TYK2 = biological target: T4, TYK2 (Homo sapiens, UniProt P29597); experiment: TYK2 inhibition (Table 4)
T4 construct: made in house; host or cells: SF9 insect cells (baculovirus)
T4 sequence (P29597 873-1187): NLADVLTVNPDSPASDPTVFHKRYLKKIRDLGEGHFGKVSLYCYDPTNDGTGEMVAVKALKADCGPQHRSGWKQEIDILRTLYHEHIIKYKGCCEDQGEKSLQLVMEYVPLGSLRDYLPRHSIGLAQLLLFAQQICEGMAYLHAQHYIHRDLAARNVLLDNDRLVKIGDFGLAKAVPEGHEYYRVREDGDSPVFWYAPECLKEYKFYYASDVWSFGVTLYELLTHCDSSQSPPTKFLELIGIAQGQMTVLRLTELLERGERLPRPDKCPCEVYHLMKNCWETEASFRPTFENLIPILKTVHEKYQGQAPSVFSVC

T3 sequence (P23458 852-1154): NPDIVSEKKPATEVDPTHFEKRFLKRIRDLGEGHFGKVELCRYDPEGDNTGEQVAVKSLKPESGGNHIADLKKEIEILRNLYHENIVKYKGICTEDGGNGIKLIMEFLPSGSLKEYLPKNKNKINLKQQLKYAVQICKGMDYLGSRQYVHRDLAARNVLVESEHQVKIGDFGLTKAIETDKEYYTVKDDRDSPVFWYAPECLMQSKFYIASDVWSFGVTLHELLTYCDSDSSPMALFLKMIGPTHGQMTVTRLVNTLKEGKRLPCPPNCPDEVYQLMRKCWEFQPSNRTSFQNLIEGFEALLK
T1 sequence (O60674 812-1132): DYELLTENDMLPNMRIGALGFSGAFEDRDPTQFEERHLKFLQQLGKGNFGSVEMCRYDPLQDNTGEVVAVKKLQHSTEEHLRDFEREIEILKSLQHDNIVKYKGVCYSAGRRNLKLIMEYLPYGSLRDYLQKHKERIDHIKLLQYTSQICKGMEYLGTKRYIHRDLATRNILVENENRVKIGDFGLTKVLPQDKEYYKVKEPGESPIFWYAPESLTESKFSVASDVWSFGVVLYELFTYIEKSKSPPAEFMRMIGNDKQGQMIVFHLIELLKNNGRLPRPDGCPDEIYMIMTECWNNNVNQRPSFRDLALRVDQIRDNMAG
T2 sequence (P52333 783-1124): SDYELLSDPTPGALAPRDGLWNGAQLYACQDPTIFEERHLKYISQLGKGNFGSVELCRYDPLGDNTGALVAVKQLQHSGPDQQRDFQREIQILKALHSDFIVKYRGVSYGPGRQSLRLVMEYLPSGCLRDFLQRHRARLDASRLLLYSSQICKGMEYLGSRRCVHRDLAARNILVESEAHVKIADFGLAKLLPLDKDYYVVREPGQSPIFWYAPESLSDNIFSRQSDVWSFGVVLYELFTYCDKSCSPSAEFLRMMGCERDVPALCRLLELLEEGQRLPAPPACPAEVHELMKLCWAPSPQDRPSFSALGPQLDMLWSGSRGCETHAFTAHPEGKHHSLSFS

A Ki (JAK2) of 34 nM, a Ki (JAK3) of 23.6 nM and a Ki (JAK1) of 9.7 nM were found for `CS(=O)(=O)Cc1nc2cnc3[nH]ccc3c2n1C1CCN(CCC#N)CC1` [Example 491, 3-[4-(2-Methanesulfonylmethyl-6H-1,3,5,6-tetraaza-as-indacen-1-yl)-piperidin-1-yl]-propionitrile] in this work. The Ki (TYK2) was 95.8 nM.

A Ki (JAK2) of 86.5 nM, a Ki (JAK3) of 200 nM and a Ki (JAK1) of 16 nM were found for `CC(=O)NCc1nc2cnc3[nH]ccc3c2n1C1CCN(CCC#N)CC1` [Example 492, N-{1-[1-(2-Cyano-ethyl)-piperidin-4-yl]-1,6-dihydro-1,3,5,6-tetraaza-as-indacen-2-ylmethyl}-acetamide] in this work. It also gave a Ki (TYK2) of 210 nM.

A Ki (JAK2) of 36.2 nM, a Ki (JAK3) of 80.2 nM and a Ki (JAK1) of 11.3 nM were found for `CCOC(=O)NCc1nc2cnc3[nH]ccc3c2n1C1CCN(CCC#N)CC1` [Example 493, {1-[1-(2-Cyano-ethyl)-piperidin-4-yl]-1,6-dihydro-1,3,5,6-tetraaza-as-indacen-2-ylmethyl}-carbamic acid ethyl ester] in this work. The Ki (TYK2) was 121 nM.

A Ki (JAK2) of 23.5 nM, a Ki (JAK3) of 18.6 nM and a Ki (JAK1) of 4.73 nM were found for `N#CCCN1CCC(n2c(CNC(=O)c3cccnc3)nc3cnc4[nH]ccc4c32)CC1` [Example 494, N-{1-[1-(2-Cyano-ethyl)-piperidin-4-yl]-1,6-dihydro-1,3,5,6-tetraaza-as-indacen-2-ylmethyl}-nicotinamide] in this work. For the same compound, the Ki (TYK2) was 61.2 nM.

A Ki (JAK2) of 106 nM, a Ki (JAK3) of 97.7 nM and a Ki (JAK1) of 16.2 nM were found for `CC(C)S(=O)(=O)NCc1nc2cnc3[nH]ccc3c2n1C1CCN(CCC#N)CC1` [Example 495, Propane-2-sulfonic acid {1-[1-(2-cyano-ethyl)-piperidin-4-yl]-1,6-dihydro-1,3,5,6-tetraaza-as-indacen-2-ylmethyl}-amide] in this work. It also gave a Ki (TYK2) of 415 nM.

A Ki (JAK2) of 8.05 nM, a Ki (JAK3) of 13.1 nM and a Ki (JAK1) of 2.75 nM were found for `N#CCCN1CCC(n2c(CNC(=O)c3ccccn3)nc3cnc4[nH]ccc4c32)CC1` [Example 496, Pyridine-2-carboxylic acid {1-[1-(2-cyano-ethyl)-piperidin-4-yl]-1,6-dihydro-1,3,5,6-tetraaza-as-indacen-2-ylmethyl}-amide] in this work. For the same compound, the Ki (TYK2) was 55.7 nM.

A Ki (JAK2) of 41.5 nM, a Ki (JAK3) of 76.3 nM and a Ki (JAK1) of 13 nM were found for `N#CCCN1CCC(n2c(CNS(=O)(=O)C3CC3)nc3cnc4[nH]ccc4c32)CC1` [Example 497, Cyclopropanesulfonic acid {1-[1-(2-cyano-ethyl)-piperidin-4-yl]-1,6-dihydro-1,3,5,6-tetraaza-as-indacen-2-ylmethyl}-amide] in this work. For the same compound, the Ki (TYK2) was 169 nM.

A Ki (JAK2) of 67.7 nM, a Ki (JAK3) of 60 nM and a Ki (JAK1) of 21.9 nM were found for `CC(C)C(=O)NCc1nc2cnc3[nH]ccc3c2n1C1CCN(CCC#N)CC1` [Example 498, N-{1-[1-(2-Cyano-ethyl)-piperidin-4-yl]-1,6-dihydro-1,3,5,6-tetraaza-as-indacen-2-ylmethyl}-isobutyramide] in this work. It also gave a Ki (TYK2) of 307 nM.

A Ki (JAK2) of 85.6 nM, a Ki (JAK3) of 103 nM and a Ki (JAK1) of 13.8 nM were found for `N#CCCN1CCC(n2c(CNS(=O)(=O)C3CCCC3)nc3cnc4[nH]ccc4c32)CC1` [Example 499, Cyclopentanesulfonic acid {1-[1-(2-cyano-ethyl)-piperidin-4-yl]-1,6-dihydro-1,3,5,6-tetraaza-as-indacen-2-ylmethyl}-amide] in this work. It also gave a Ki (TYK2) of 417 nM.

A Ki (JAK2) of 58.7 nM, a Ki (JAK3) of 41 nM and a Ki (JAK1) of 28.7 nM were found for `N#CCCN1CCC(n2c(CNC(=O)C3CC3)nc3cnc4[nH]ccc4c32)CC1` [Example 500, Cyclopropanecarboxylic acid {1-[1-(2-cyano-ethyl)-piperidin-4-yl]-1,6-dihydro-1,3,5,6-tetraaza-as-indacen-2-ylmethyl}-amide] in this work. It also gave a Ki (TYK2) of 394 nM.

A Ki (JAK2) of 12 nM, a Ki (JAK3) of 12.2 nM and a Ki (JAK1) of 3.93 nM were found for `N#CCCN1CCC(n2c(CNC(=O)c3ccccc3F)nc3cnc4[nH]ccc4c32)CC1` [Example 501, N-{1-[1-(2-Cyano-ethyl)-piperidin-4-yl]-1,6-dihydro-1,3,5,6-tetraaza-as-indacen-2-ylmethyl}-2-fluoro-benzamide] in this work. The Ki (TYK2) was 56.4 nM.

A Ki (JAK2) of 10.4 nM, a Ki (JAK3) of 19.6 nM and a Ki (JAK1) of 2.54 nM were found for `COCC(=O)NCc1nc2cnc3[nH]ccc3c2n1C1CCN(CCC#N)CC1` [Example 503, N-{1-[1-(2-Cyano-ethyl)-piperidin-4-yl]-1,6-dihydro-1,3,5,6-tetraaza-as-indacen-2-ylmethyl}-2-methoxy-acetamide] in this work. For the same compound, the Ki (TYK2) was 50.5 nM.

A Ki (JAK2) of 25.4 nM, a Ki (JAK3) of 53.6 nM and a Ki (JAK1) of 7.75 nM were found for `CCS(=O)(=O)NCc1nc2cnc3[nH]ccc3c2n1C1CCN(CCC#N)CC1` [Example 504] in this work. It also gave a Ki (TYK2) of 116 nM.

A Ki (JAK2) of 22.4 nM, a Ki (JAK3) of 20.4 nM and a Ki (JAK1) of 5.18 nM were found for `N#CCCN1CCC(n2c(CNC(=O)c3cccc(F)c3)nc3cnc4[nH]ccc4c32)CC1` [Example 505, N-{1-[1-(2-Cyano-ethyl)-piperidin-4-yl]-1,6-dihydro-1,3,5,6-tetraaza-as-indacen-2-ylmethyl}-3-fluoro-benzamide] in this work. For the same compound, the Ki (TYK2) was 98.8 nM.

A Ki (JAK2) of 53.7 nM, a Ki (JAK3) of 74 nM and a Ki (JAK1) of 5.75 nM were found for `CC(C)CS(=O)(=O)NCc1nc2cnc3[nH]ccc3c2n1C1CCN(CCC#N)CC1` [Example 506, 2-Methyl-propane-1-sulfonic acid {1-[1-(2-cyano-ethyl)-piperidin-4-yl]-1,6-dihydro-1,3,5,6-tetraaza-as-indacen-2-ylmethyl}-amide] in this work. It also gave a Ki (TYK2) of 179 nM.

A Ki (JAK2) of 10.3 nM, a Ki (JAK3) of 23.2 nM and a Ki (JAK1) of 2.14 nM were found for `OCc1nc2cnc3[nH]ccc3c2n1C1CCN(CCF)CC1` [Example 508, {1-[1-(2-Fluoro-ethyl)-piperidin-4-yl]-1,6-dihydro-1,3,5,6-tetraaza-as-indacen-2-yl}-methanol] in this work. The Ki (TYK2) was 10.2 nM.

A Ki (JAK2) of 23.6 nM, a Ki (JAK3) of 65.5 nM and a Ki (JAK1) of 2.55 nM were found for `O=S(=O)(CCC(F)(F)F)NCCc1nc2cnc3[nH]ccc3c2n1C1CCCCC1` [Example 509, 3,3,3-Trifluoro-propane-1-sulfonic acid [2-(1-cyclohexyl-1,6-dihydro-1,3,5,6-tetraaza-as-indacen-2-yl)-ethyl]-amide] in this work. It also gave a Ki (TYK2) of 21.6 nM.

A Ki (JAK2) of 51.1 nM, a Ki (JAK3) of 132 nM and a Ki (JAK1) of 3.91 nM were found for `CN(C)CC(=O)NCCc1nc2cnc3[nH]ccc3c2n1C1CCCCC1` [Example 510, N-[2-(1-Cyclohexyl-1,6-dihydro-1,3,5,6-tetraaza-as-indacen-2-yl)-ethyl]-2-dimethylamino-acetamide] in this work. The Ki (TYK2) was 20.8 nM.

A Ki (JAK2) of 48.9 nM, a Ki (JAK3) of 174 nM and a Ki (JAK1) of 5.3 nM were found for `CN1CCN(S(=O)(=O)NCCc2nc3cnc4[nH]ccc4c3n2C2CCCCC2)CC1` [Example 511, 4-Methyl-piperazine-1-sulfonic acid [2-(1-cyclohexyl-1,6-dihydro-1,3,5,6-tetraaza-as-indacen-2-yl)-ethyl]-amide] in this work. It also gave a Ki (TYK2) of 30.3 nM.

A Ki (JAK2) of 2.16 nM, a Ki (JAK3) of 7.63 nM and a Ki (JAK1) of 0.84 nM were found for `Cc1nc2cnc3[nH]ccc3c2n1C1CCN(CCF)CC1` [Example 513, 1-[1-(2-Fluoro-ethyl)-piperidin-4-yl]-2-methyl-1,6-dihydro-1,3,5,6-tetraaza-as-indacene] in this work. It also gave a Ki (TYK2) of 6.95 nM.

A Ki (JAK2) of 7.04 nM, a Ki (JAK3) of 25.4 nM and a Ki (JAK1) of 3.48 nM were found for `CCN1CC[C@@H](n2c(C)nc3cnc4[nH]ccc4c32)[C@@H](F)C1` [Example 521, 1-((3S,4R)-1-Ethyl-3-fluoro-piperidin-4-yl)-2-methyl-1,6-dihydro-1,3,5,6-tetraaza-as-indacene] in this work. It also gave a Ki (TYK2) of 48.8 nM.

A Ki (JAK2) of 56.9 nM, a Ki (JAK3) of 180 nM and a Ki (JAK1) of 38.5 nM were found for `CCN1CC[C@@H](n2nnc3cnc4[nH]ccc4c32)[C@@H](F)C1` [Example 522, 1-((3S,4R)-1-Ethyl-3-fluoro-piperidin-4-yl)-1,6-dihydro-1,2,3,5,6-pentaaza-as-indacene] in this work. It also gave a Ki (TYK2) of 356 nM.

A Ki (JAK2) of 16.7 nM, a Ki (JAK3) of 302 nM and a Ki (JAK1) of 11.2 nM were found for `CCN1CC[C@@H](n2cnc3cnc4[nH]ccc4c32)[C@@H](F)C1` [Example 523, 1-((3S,4R)-1-Ethyl-3-fluoro-piperidin-4-yl)-1,6-dihydro-1,3,5,6-tetraaza-as-indacene] in this work. It also gave a Ki (TYK2) of 85.6 nM.

A Ki (JAK2) of 1.45 nM, a Ki (JAK3) of 3 nM and a Ki (JAK1) of 0.66 nM were found for `N#CCCN1CCC(n2c(CF)nc3cnc4[nH]ccc4c32)CC1` [Example 530, 3-[4-(2-Fluoromethyl-6H-1,3,5,6-tetraaza-as-indacen-1-yl)-piperidin-1-yl]-propionitrile] in this work. It also gave a Ki (TYK2) of 5.61 nM.

A Ki (JAK2) of 76.6 nM, a Ki (JAK3) of 51 nM and a Ki (JAK1) of 18.2 nM were found for `OCc1nc2cnc3[nH]ccc3c2n1C1CCOCC1` [Example 542, [1-(Tetrahydro-pyran-4-yl)-1,6-dihydro-1,3,5,6-tetraaza-as-indacen-2-yl]-methanol] in this work. The Ki (TYK2) was 27.3 nM.

A Ki (JAK2) of 384 nM, a Ki (JAK3) of 179 nM and a Ki (JAK1) of 82.6 nM were found for `C[C@H](O)c1nc2cnc3[nH]ccc3c2n1C1CCOCC1` [Example 543, (S)-1-[1-(Tetrahydro-pyran-4-yl)-1,6-dihydro-1,3,5,6-tetraaza-as-indacen-2-yl]-ethanol] in this work. It also gave a Ki (TYK2) of 274 nM.

A Ki (JAK2) of 184 nM, a Ki (JAK3) of 1410 nM and a Ki (JAK1) of 27.4 nM were found for `Cc1nc2cnc3[nH]ccc3c2n1C1CCN(C(C)C)CC1` [Example 547, 1-(1-Isopropyl-piperidin-4-yl)-2-methyl-1,6-dihydro-1,3,5,6-tetraaza-as-indacene] in this work. The Ki (TYK2) was 638 nM.

A Ki (JAK2) of 182 nM, a Ki (JAK3) of 3490 nM and a Ki (JAK1) of 92.4 nM were found for `CC(C)N1CCC(n2cnc3cnc4[nH]ccc4c32)CC1` [Example 549, 1-(1-Isopropyl-piperidin-4-yl)-1,6-dihydro-1,3,5,6-tetraaza-as-indacene] in this work. For the same compound, the Ki (TYK2) was 809 nM.

From patent US8461328B2, “Tricyclic heterocyclic compounds, compositions and methods of use thereof” (Genentech, Inc., priority 2010, dated 2013)
